Type in all cases: functional
The subject of one assay is HCC 2998. Briefly: Anticancer activity against human HCC2998 cells assessed as cell growth promotion at 10^-5 M after 48 hrs by SRB assay relative to control. (The SRB assay estimates cell density from bound dye.)
The next assay has as its system SW-620. Kind of assay: Anticancer activity against human SW620 cells assessed as cell growth promotion at 10^-5 M after 48 hrs by SRB assay relative to control.
The next assay deals with SN12C. Kind of assay: Anticancer activity against human SN12C cells assessed as cell growth promotion at 10^-5 M after 48 hrs by SRB assay relative to control.
The subject of the next assay is CAKI-1. Briefly: Anticancer activity against human Caki1 cells assessed as cell growth promotion at 10^-5 M after 48 hrs by SRB assay relative to control.
A further assay deals with Malme-3M. Briefly: Anticancer activity against human MALME-3M cells assessed as cell growth promotion at 10^-5 M after 48 hrs by SRB assay relative to control.
A further assay relates to NCI-H522. Briefly: Anticancer activity against human NCI-H522 cells assessed as cell growth promotion at 10^-5 M after 48 hrs by SRB assay relative to control.
A further assay deals with SNB-75. Briefly: Anticancer activity against human SNB75 cells assessed as cell growth promotion at 10^-5 M after 48 hrs by SRB assay relative to control.
A further assay relates to RXF 393. Briefly: Anticancer activity against human RXF393 cells assessed as cell growth promotion at 10^-5 M after 48 hrs by SRB assay relative to control.
Another assay concerns BT-549. Briefly: Anticancer activity against human BT549 cells assessed as cell growth promotion at 10^-5 M after 48 hrs by SRB assay relative to control.
A further assay relates to SF-295. Briefly: Anticancer activity against human SF295 cells assessed as cell growth promotion at 10^-5 M after 48 hrs by SRB assay relative to control.
The test system of a further assay is SK-MEL-2. Briefly: Anticancer activity against human SK-MEL-2 cells assessed as cell growth promotion at 10^-5 M after 48 hrs by SRB assay relative to control.
The next assay relates to MDA-MB-231. Briefly: Anticancer activity against human MDA-MB-231 cells assessed as cell growth promotion at 10^-5 M after 48 hrs by SRB assay relative to control.
The test system of the next assay is OVCAR-4. Briefly: Anticancer activity against human OVCAR4 cells assessed as cell growth promotion at 10^-5 M after 48 hrs by SRB assay relative to control.
The test system of the next assay is U-251. Briefly: Anticancer activity against human U251 cells assessed as cell growth promotion at 10^-5 M after 48 hrs by SRB assay relative to control.
For another assay, the system named is EKVX. Briefly: Anticancer activity against human EKVX cells assessed as cell growth promotion at 10^-5 M after 48 hrs by SRB assay relative to control.
A further assay concerns SR. Kind of assay: Anticancer activity against human SR cells assessed as cell growth promotion at 10^-5 M after 48 hrs by SRB assay relative to control.
For another assay, the system named is IGROV-1. Briefly: Anticancer activity against human IGROV1 cells assessed as cell growth promotion at 10^-5 M after 48 hrs by SRB assay relative to control.
In a further assay the test system is DU-145. Briefly: Anticancer activity against human DU145 cells assessed as cell growth promotion at 10^-5 M after 48 hrs by SRB assay relative to control.
In a further assay the test system is SF-268. Kind of assay: Anticancer activity against human SF268 cells assessed as cell growth promotion at 10^-5 M after 48 hrs by SRB assay relative to control.
Another assay concerns 786-0. Briefly: Anticancer activity against human 786-0 cells assessed as cell growth promotion at 10^-5 M after 48 hrs by SRB assay relative to control.
The nature of assay [1]: Anticancer activity against human […] cells assessed as cell growth promotion at 10^-5 M after 48 hrs by SRB assay relative to control.

Turning to `O=C(O)c1ccc(-n2c(-c3ccco3)nc3ccccc3c2=O)cc1`, the Activity was 120.31% in the assay on HCC 2998; 106.15% with SW-620; 99.34% in the assay on SN12C; 102.24% with CAKI-1; 102.96% in the assay with Malme-3M; 109.67% in the assay on NCI-H522. The Activity with SNB-75 turned out to be 89.2%; in the assay on RXF 393, 109.93%; in the assay on BT-549 it was 100.59%; in the assay with SF-295 it was 108.58%; with SK-MEL-2, 93.19%; in the assay with MDA-MB-231, 83.73%. The Activity was 100.6% with OVCAR-4; 102.8% with U-251; 98.39% in the assay on EKVX; 92.85% in the assay on SR; 91.67% with IGROV-1; 111.42% with DU-145. The Activity was 106.85% in the assay on SF-268 and 105.17% in the assay on 786-0.

Turning to `NS(=O)(=O)c1ccc(NC(=O)c2ccccc2NC(=O)c2ccco2)cc1`, the Activity was 103.3% in the assay with HCC 2998; 101.9% with SW-620; 105% with SN12C; 100% in the assay with CAKI-1; 118.8% with Malme-3M; 90.78% with NCI-H522. For the same compound, the Activity in the assay on SNB-75 was determined as 87.71%; in the assay on RXF 393 it was 113%; in the assay on BT-549, 111%; with SF-295, 103.8%; in assay [1], 117.5%; in the assay with SK-MEL-2, 115.3%. The Activity came out at 102% in the assay with MDA-MB-231; 98% in the assay with OVCAR-4; 99.55% in the assay on U-251; 97.23% in the assay with EKVX; 101.4% with SR; 117% with IGROV-1. For the same compound, the values for the Activity in the assay with DU-145, with SF-268 and with 786-0 were 113%, 98.43% and 108%, respectively.

For `N#Cc1ccc(/C=C/c2ccc(NC(=O)c3ccccc3NC(=O)c3ccco3)cc2)cc1`, the Activity in the assay with HCC 2998 worked out at 105%; in the assay with SW-620 it was 106%; in the assay with SN12C it was 104%; in the assay with CAKI-1 it was 83.31%; in the assay with Malme-3M it was 108%; in the assay with NCI-H522, 106%. Besides, the Activity in the assay on SNB-75 stood at 80%; with RXF 393 it was 114%; in the assay with BT-549, 109%; in the assay on SF-295, 114%; in assay [1], 108%; with SK-MEL-2, 116%. In addition, the Activity with MDA-MB-231 was found to be 94.46%; in the assay with OVCAR-4, 100%; in the assay on U-251 it was 100%; in the assay on EKVX, 88.81%; in the assay on SR, 109%; in the assay on IGROV-1, 110%. Also, the Activity in the assay with DU-145 is on record as 104%; with SF-268 it was 104%; in the assay with 786-0 it was 115%.

`O=C(Nc1ccccc1C(=O)Nc1ccc(/C=C/c2ccc(Cl)cc2)cc1)c1ccco1`: the Activity in the assay on HCC 2998 is reported as 96.83%; with SW-620, 106%; with SN12C, 103%; in the assay on CAKI-1 it was 89.89%; with Malme-3M it was 115%; in the assay on NCI-H522, 114%. The Activity in the assay on SNB-75 is 71.39%; in the assay on RXF 393, 117%; with BT-549 it was 127%; in the assay with SF-295, 122%; in [1], 120%; in the assay with SK-MEL-2 it was 136%. Further, the Activity in the assay on MDA-MB-231 was found to be 102%; in the assay with OVCAR-4, 101%; in the assay on U-251, 107%; with EKVX, 80.41%; with SR, 109%; in the assay on IGROV-1, 117%. The Activity with DU-145 is 112%; with SF-268, 107%; in the assay with 786-0, 103%.

As for `O=C(Nc1ccccc1C(=O)Nc1ccc(/C=C/c2ccc(O)cc2)cc1)c1ccccc1`, the Activity in the assay with HCC 2998 worked out at 94.19%; in the assay with SW-620, 101%; with SN12C it was 80.93%; in the assay with CAKI-1 it was 70.25%; in the assay with Malme-3M, 97.53%; in the assay with NCI-H522, 69.87%. Besides, the Activity was 99.47% in the assay on SNB-75; 97.37% with RXF 393; 65.95% in the assay with BT-549; 97.53% with SF-295; 53.22% in assay [1]; 99.47% with SK-MEL-2. In addition, the Activity with MDA-MB-231 was 76.35%; in the assay on OVCAR-4, 82.05%; in the assay with U-251, 103%; with EKVX, 85.24%; in the assay on SR it was 94.97%; in the assay on IGROV-1, 85.6%. The Activity in the assay with DU-145 came to 100%; in the assay on SF-268 it was 69.03%; with 786-0 it was 81.43%.

On to `O=C(Nc1ccccc1C(=O)Nc1ccc(/C=C/c2ccc(Cl)cc2)cc1)c1ccccc1`, for which the Activity with HCC 2998 stood at 78.38%; with SW-620, 99.16%; with SN12C, 79.73%; in the assay with CAKI-1, 90.6%; with Malme-3M, 91.75%; in the assay on NCI-H522, 70.95%. Moreover, the Activity with SNB-75 amounted to 84.55%; in the assay on RXF 393, 82.15%; in the assay on BT-549 it was 76.41%; in the assay on SF-295, 52.07%; in assay [1] it was 56.24%; in the assay on SK-MEL-2 it was 90.64%. In addition, the Activity was 81.11% in the assay with MDA-MB-231; 85.63% with OVCAR-4; 60.68% in the assay with U-251; 86.68% in the assay on EKVX; 81.19% in the assay with SR; 89.85% in the assay on IGROV-1. Moreover, the Activity with DU-145 turned out to be 107%; in the assay on SF-268 it was 82.84%; with 786-0, 75.14%.

For the origin of these results see ChEMBL document CHEMBL1781959, “Synthesis and in vitro antitumor activity of substituted quinazoline and quinoxaline derivatives: search for anticancer agent” (Eur J Med Chem, 2011).
